Laboratory results as given in US20100041642A1, “UREA INHIBITORS OF MAP KINASES” (LOCUS PHARMACEUTICALS, INC., priority 2008, published 2010).

Target: p38 (Homo sapiens, UniProt Q16539)
Assay: Protein Kinase Assay (33P incorporation from γ-[33P]ATP into GST-ATF-2)
Format: biochemical
Settings: 2 nM p38, preincubated 20 min at 30° C.; 10 uM cold ATP, 2 uM GST-ATF2, 70 min; read-out: ACT. (Activity), IC50 category in Protein Kinase Assay
In short: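 Compounds preincubated 20 min at 30 °C with 2 nM p38; reaction started with 2 uM GST-ATF-2 (aa 19-96) and 10 uM ATP plus γ-[33P]ATP, pH 7.5, 70 min at 30 °C, 2% DMSO. Phosphoric acid stop; 33P-labelled substrate captured on phosphocellulose and counted by scintillation.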

Chain of p38 (Q16539 whole entry): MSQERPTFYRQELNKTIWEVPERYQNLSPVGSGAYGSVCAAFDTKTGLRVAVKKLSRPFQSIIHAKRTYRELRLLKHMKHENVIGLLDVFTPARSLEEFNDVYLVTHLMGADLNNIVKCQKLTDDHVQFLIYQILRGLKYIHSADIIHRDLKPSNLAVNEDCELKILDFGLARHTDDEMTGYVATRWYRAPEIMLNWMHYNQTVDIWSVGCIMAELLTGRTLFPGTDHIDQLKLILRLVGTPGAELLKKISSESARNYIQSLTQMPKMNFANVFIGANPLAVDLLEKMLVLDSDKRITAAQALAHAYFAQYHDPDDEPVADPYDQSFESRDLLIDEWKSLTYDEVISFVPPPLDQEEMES

IC50 | Structure (SMILES)
< 100 nM | Cc1ccc(NC(=O)Nc2sc(C(C)(C)C)cc2C(=O)N2CCN(C)C(=O)C2(C)C)cc1-c1ccc(C[N+]2([O-])CCOCC2)nc1 [4-((5-(5-(3-(5-tert-butyl-3-(2,2,4-trimethyl-3-oxopiperazine-1-carbonyl)thiophen-2-yl)ureido)-2-methylphenyl)pyridin-2-yl)methyl)morpholine 4-oxide]
< 100 nM | Cc1ccc(NC(=O)Nc2sc(C(C)(C)C)cc2C(=O)N2CCNC(=O)C2(C)C)cc1-c1ccc(CN2CCOCC2)nc1 [1-(5-tert-butyl-3-(2,2-dimethyl-3-oxopiperazine-1-carbonyl)thiophen-2-yl)-3-(4-methyl-3-(6-(morpholinomethyl)pyridin-3-yl)phenyl)urea]
< 100 nM | Cc1ccc(NC(=O)Nc2sc(C(C)(C)C)cc2C(=O)N2CCN(C)C(=O)C2(C)C)cc1-c1ccc(C(C)O)nc1 (stereo not drawn) [1-(5-tert-butyl-3-(2,2,4-trimethyl-3-oxopiperazine-1-carbonyl)thiophen-2-yl)-3-(3-(6-(1-hydroxyethyl)pyridin-3-yl)-4-methylphenyl)urea]
< 100 nM | Cc1ccc(NC(=O)Nc2sc(C(C)(C)C)cc2C(=O)N2CCN(C)C(=O)C2(C)C)cc1-c1ccc(CN2CCN(C)CC2)nc1 [1-(5-tert-butyl-3-(2,2,4-trimethyl-3-oxopiperazine-1-carbonyl)thiophen-2-yl)-3-(4-methyl-3-(6-((4-methylpiperazin-1-yl)methyl)pyridin-3-yl)phenyl)urea]
< 100 nM | CCNC(=O)c1ccc(-c2cc(NC(=O)Nc3cn(C(C)(C)C)nc3C(=O)N3CCN(C)C(=O)C3(C)C)ccc2C)cn1 [5-(5-(3-(1-tert-butyl-3-(2,2,4-trimethyl-3-oxopiperazine-1-carbonyl)-1H-pyrazol-4-yl)ureido)-2-methylphenyl)-N-ethylpyridine-2-carboxamide]
< 100 nM | CCc1ccc(-c2cc(NC(=O)Nc3sc(C(C)(C)C)cc3C(=O)N3CCNC(=O)C3(C)C)ccc2C)cn1 [1-(5-tert-butyl-3-(2,2-dimethyl-3-oxopiperazine-1-carbonyl)thiophen-2-yl)-3-(3-(6-ethylpyridin-3-yl)-4-methylphenyl)urea]
< 100 nM | Cc1ccc(NC(=O)Nc2sc(C(C)(C)C)cc2C(=O)N2CCN(C)C(=O)C2(C)C)cc1-c1ccc(-n2ccnc2)nc1 [1-(3-(6-(1H-imidazol-1-yl)pyridin-3-yl)-4-methylphenyl)-3-(5-tert-butyl-3-(2,2,4-trimethyl-3-oxopiperazine-1-carbonyl)thiophen-2-yl)urea]
< 1000 nM | Cc1ccc(NC(=O)Nc2sc(C(C)(C)C)cc2C(=O)N2CCN(C(=O)CN(C)C)CC2)cc1-c1cccnc1 [1-(5-tert-butyl-3-(4-(2-(dimethylamino)ethanoyl)piperazine-1-carbonyl)thiophen-2-yl)-3-(4-methyl-3-(pyridin-3-yl)phenyl)urea]
< 100 nM | Cc1nnc(CN2CCN(C(=O)c3cc(C(C)(C)C)sc3NC(=O)Nc3ccc(C)c(-c4ccncc4)c3)C(C)(C)C2=O)o1 [1-(5-tert-butyl-3-(3,3-dimethyl-1-((5-methyl-1,3,4-oxadiazol-2-yl)methyl)-2-oxopiperazine-4-carbonyl)thiophen-2-yl)-3-(4-methyl-3-(pyridin-4-yl)phenyl)urea]
